{"source": "patent US6221676A", "about": "“DNA encoding human leukotriene C4 synthase, polypeptides and uses therefor” (Brigham and Women's Hospital, priority 1997, dated 2001)", "key": {"LTC4 synthase": {"molecular_target": "T1, LTC4 synthase (Homo sapiens, UniProt Q16873)", "T1 construct": "expressed in transfected cells; host or cells: COS-7 (lysate of transfectants; cDNA from a KG-1 library in pcDNA3)", "T1 sequence (Q16873 1-150)": "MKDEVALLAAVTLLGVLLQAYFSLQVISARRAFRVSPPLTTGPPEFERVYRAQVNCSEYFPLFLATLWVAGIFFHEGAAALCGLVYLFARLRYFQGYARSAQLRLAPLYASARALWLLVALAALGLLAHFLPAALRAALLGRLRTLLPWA", "assay": "Inhibition of LTC4 synthase activity (conversion of LTA4-ME to LTC4-ME) in lysates of transfected COS-7 cells", "type": "biochemical", "description": "HPLC was carried out with a model 126 dual pump system and model 167 scanning UV detector (Beckman Instruments) controlled by an IBM PS2/50 computer using Beckman System Gold software. Samples were applied to a 5-μm 4.6×250-mm C18 Ultrasphere reverse phase column (Beckman Instruments) equilibrated with a solvent of methanol/acetonitrile/water/acetic acid (10:15:100:0.2, v/v), pH 6.0 (solvent A). After injection of the sample, the column was eluted at a flow rate of 1 ml/min with a programmed concave gradient (System Gold curve 6) to 30% solvent A and 70% pure methanol (solvent B) over 0.2 min. After 2.8 min more, solvent B was increased linearly to 90% over 2 min and was maintained at this level for an additional 10 min. UV absorbance at 280 nm and the UV spectra were recorded simultaneously. The retention times for PGB2 and LTC4 -ME were 8.5 and 10.1 min, respectively. LTC4 -ME was quantitated by calculating the ratio of the peak area to the area of the internal standard PGB2.\nDose-Response Assay using MK886\nCell lysates of the COS-7 cell transfectant containing SEQ ID NO.: 1 were incubated with 20 micromolar LTA4 -ME, 20 mM GSH, 5 mM MgCl2 in HEPES buffer (pH 7.6), in the presence of 0-10 micromolar MK-886 for 10 minutes at room temperature. Reactions were stopped by addition of 2 volumes of methanol containing 200 ng PGB2. Samples were analyzed by RP-HPLC.\nLysates from transfected COS cells were analysed for LTC4, the product of conjugating reduced glutathione with 5,6-oxido-7,9-E-11,14-Z-eicosatetraenoic acid. […] At 10 μM, MK-886 inhibits more than 90% of the enzyme activity."}, "[1]": {"assay": "Conjugation of GSH to 1-chloro-2,4-dintrobenzene by purified LTC4 synthase fraction", "type": "biochemical", "conditions": "fraction purified from native KG-1 cells", "source_text": "Detergent-solubilize LTC4 synthase from 6×10^10 native KG-1 cells (using 0.4% deoxycholate, 0.4% Triton X-102, 10% glycerol) was purified by S-hexylglutathione-agarose chromatography using procedures adapted from Penrose et al., Proc. Nat. Acad. Sci., USA, 89:, above, followed by LTC2 affinity chromatography. Active fractions purified from the S-hexylglutathione-agarose column were combined, concentrated (Amicon, Danvers, Mass.) and then loaded onto an LTC2 affinity column equilibrated with buffer A and 0.1% Triton X-102. The column was washed with the same buffer and the enzyme was eluted with buffer A, containing 0.1% Triton X-102, 0.5 M NaCl and 5 mM reduced glutathione.\nThe LTC4 synthase activity contained a single 18-kDa protein by sodium dodecyl sulfate-polyacrylamide gel electrophoresis (NaDodSO4 -PAGE) with silver staining. […] A sample of the purified protein was concentrated and added to an equal volume of reducing buffer, and the mixture was boiled for 5 min. The reduced protein in this solution was bound to a polyvinylidene membrane by incubation overnight at 4° C. The bound protein was analyzed for N-terminal amino acid sequence by automated Edman degradation or was digested in situ with trypsin. Fernandez et al., Anal. Biochem., 201: 255-264 (1992). […]"}}}
{"molecule": "CC(C)c1ccc2c(c1)c(SC(C)(C)C)c(CC(C)(C)C(=O)O)n2Cc1ccc(Cl)cc1", "note": "[MK-886]", "values": [{"measurement": "IC50", "setting": "LTC4 synthase; IC50, inhibition of conversion of LTA4-ME to LTC4-ME, 20 uM LTA4-ME, COS cell lysates, dose-dependent, 10 minutes, room temperature", "value": "< 3", "unit": "µM"}, {"measurement": "IC50", "setting": "LTC4 synthase; ID50, inhibition of LTC4 synthase activity, transfected COS cell lysates, dose-related (Discussion)", "value": "~3", "unit": "µM"}, {"measurement": "inhibition at 10 µM", "setting": "LTC4 synthase; read-out: inhibition of the enzyme activity", "value": "> 90", "unit": "%"}]}
{"molecule": "C[C@H](C#Cc1ccc(Oc2ccc(F)cc2)o1)N(O)C(N)=O", "note": "[A79175]", "values": [{"measurement": "effect on LTC4 synthase activity", "setting": "LTC4 synthase; at a concentration of 10 μM, COS cell lysates", "value": "did not affect LTC4 synthase activity"}]}
{"molecule": "LTC4 synthase: 150-amino acid residue integral membrane protein with three hydrophobic transmembrane domains (protein, UniProt Q16873 1-150, looked up) Leukotriene C4 synthase: MKDEVALLAAVTLLGVLLQAYFSLQVISARRAFRVSPPLTTGPPEFERVYRAQVNCSEYFPLFLATLWVAGIFFHEGAAALCGLVYLFARLRYFQGYARSAQLRLAPLYASARALWLLVALAALGLLAHFLPAALRAALLGRLRTLLPWA", "values": [{"measurement": "conjugation of GSH to 1-chloro-2,4-dintrobenzene", "setting": "[1]", "value": "did not conjugate GSH to 1-chloro-2,4-dintrobenzene"}]}
